# Reference: patent EP0186365A2, “Preparation of alcohols” (UNITED KINGDOM ATOMIC ENERGY AUTHORITY, priority 1984, dated 1986)
# Columns and labels:
# [1] = biological target: T1, Horse liver alcohol dehydrogenase or HLADH (Equus caballus, UniProt P00327); assay: Example 4: activity of immobilised HLADH in the reduction of aldehydes (NADH absorbance decrease at 380 nm); type: biochemical; settings: aldehyde as substrate (2mM), NADH (1mM), pH 7.0, 22 °C, initial rate over 2 minutes
# T1 construct: whether it is derived from yeast (i.e. is a YADH) from horse liver (HLADH), or from another source; from tissue; host or cells: horse liver
# T1 sequence (P00327 whole entry): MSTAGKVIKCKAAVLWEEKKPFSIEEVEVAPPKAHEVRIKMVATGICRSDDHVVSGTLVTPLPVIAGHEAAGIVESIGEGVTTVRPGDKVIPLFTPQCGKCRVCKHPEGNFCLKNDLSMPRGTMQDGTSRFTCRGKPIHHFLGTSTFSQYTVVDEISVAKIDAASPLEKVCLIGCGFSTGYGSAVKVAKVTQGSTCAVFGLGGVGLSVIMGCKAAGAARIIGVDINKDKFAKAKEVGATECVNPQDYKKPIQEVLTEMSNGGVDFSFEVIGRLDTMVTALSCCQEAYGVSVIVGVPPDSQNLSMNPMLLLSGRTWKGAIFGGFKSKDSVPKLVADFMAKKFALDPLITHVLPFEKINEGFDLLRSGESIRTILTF
# Procedure: Horse liver alcohol dehydrogenase or HLADH (50 mg; 1 U/mg) was reacted with swelled CNBr-activated Sepharose 4B (Registered Trade Mark) beads (0.8 g).
# The activity of the immobilised enzyme in the reduction of aldehydes to alcohols was determined in coupling buffer (0.1 M; pH 7.0) at 22 (+2)°C as the initial rate of decrease in absorbance at 380 nm over a 2 minute time period using NADH (lmM) and aldehyde (2mM).
# immobilised HLADH = biological target: T2, immobilised HLADH (Equus caballus, UniProt P00327); assay: Example 5: inhibition of immobilised HLADH by aldehydes; type: biochemical, horse; settings: (b) immobilised HLADH; assay using the aldehyde used in pre-incubation
# T2 construct: whether it is derived from yeast (i.e. is a YADH) from horse liver (HLADH), or from another source; from tissue; host or cells: horse liver
# T2 sequence (P00327 whole entry): as above
# Procedure: (§1) In order to test the inhibition of the immobilised enzyme by aldehyde, the beads (50 - 60 µl) were incubated with trans-cinnamaldehyde ([…]; 10 mM) and a coupling buffer (3.95 ml; pH 7.0). This gave a final aldehyde concentration of 2 mM and a protein concentration of 0.16 mg/ml. The reaction mixture was incubated at 22 (+2)°C for 60 min with continuous gentle agitation. The immobilised enzyme was washed three times in coupling buffer (10 ml) at 22 (+2)C and resuspended in eight times of its original volume in coupling buffer. Enzyme activity was assayed immediately after washing using trans-cinnamaldehyde (5 mM) as assay substrate with a protein concentration of 0.2 mg/ml.
# Horse liver alcohol dehydrogenase or HLADH (50 mg; 1 U/mg) was reacted with swelled CNBr-activated Sepharose 4B (Registered Trade Mark) beads (0.8 g). Approximately 90% of the enzyme was thus immobilised.
# The inhibition of the immobilised enzyme (prepared as in Example 4) by aldehydes was tested and compared with the soluble enzyme as described in Example 3. The results were as follows:
# (a) assaying using trans-cinnamaldehyde following pre-incubation using a different aldehyde
# (b) assaying using the aldehyde used in pre-incubation
# YADH [2] = biological target: T3, YADH (Saccharomyces cerevisiae, UniProt P00330); assay: Example 3 (i): inhibition of immobilised YADH after pre-incubation with aldehyde; type: biochemical, yeast; settings: immobilised enzyme; 2 mM aldehyde, 60 min, 22 °C, then washing; assayed with trans-cinnamaldehyde (5 mM)
# T3 sequence (P00330 1-348): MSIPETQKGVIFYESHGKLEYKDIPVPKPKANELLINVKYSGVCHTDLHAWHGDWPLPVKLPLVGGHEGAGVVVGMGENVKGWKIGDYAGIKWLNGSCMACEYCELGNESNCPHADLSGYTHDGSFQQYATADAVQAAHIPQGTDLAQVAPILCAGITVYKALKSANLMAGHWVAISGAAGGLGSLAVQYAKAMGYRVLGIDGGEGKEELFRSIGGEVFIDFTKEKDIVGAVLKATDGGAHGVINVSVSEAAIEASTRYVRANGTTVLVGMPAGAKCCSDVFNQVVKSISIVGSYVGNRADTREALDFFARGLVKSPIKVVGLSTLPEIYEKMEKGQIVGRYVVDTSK
# Procedure: YADH (15 mg; 200U/mg) was reacted with swelled CNBr-activated Sepharose 4B (Registered Trade Mark) beads (0.4 g; ex Pharmacia) and coupling carried out in sodium phosphate buffer (0.1M; pH 7.0) containing KCl (0.5 M) for 18 hours at 4°C. Approximately 90% of the enzyme was thus immobilised.
# as §1
# YADH [3] = biological target: T3, YADH; assay: Inhibition/inactivation of YADH in solution by incubation with aldehyde; type: biochemical, yeast
# Description: The enzymatic reduction of aldehydes may, however, present a serious problem due to the aldehyde, whilst being a substrate for the enzyme, being a potent irreversible inhibitor.
# YADH [4] = biological target: T3, YADH; assay: Example 3 (ii): inhibition of soluble YADH after pre-incubation with aldehyde; type: biochemical, yeast; settings: soluble enzyme; 2 mM aldehyde, 60 min, 22 °C, then dialysis; assayed with trans-cinnamaldehyde (5 mM)
# Procedure: By way of comparison, stock enzyme solution (800 µ1; 0.2 mg protein/ml) was incubated with cinnamaldehyde (200 µ1; 10 mM). This also gave a final aldehyde concentration of 2 mM and a protein concentration of 0.16 mg/ml. The reaction mixture was incubated at 22 (+2)^OC for 60 min with continuous gentle agitation. After incubation, the soluble enzyme was dialysed against coupling buffer (30 ml; 0.lM) at 4°C for 21/2 hours with one change of buffer. Enzyme activity was assayed immediately after dialysis using trans-cinnamaldehyde (5 mM) as assay substrate with a protein concentration of 0.2 mg/ml.
# [5] = solution of the enzyme incubated with 5 mM aldehyde
SMILES,activity [1],further results
O=Cc1ccc2c(c1)OCO2 [piperonaldehyde],1.47 micromoles NADH/min/mg protein,
O=Cc1ccccc1O [salicylaldehyde],0.57 micromoles NADH/min/mg protein,
CC(C)=CCCC(C)CC=O (centres unmarked) [citronellal],0.75 micromoles NADH/min/mg protein,inhibition at 2000 µM (immobilised HLADH): 11%
O=C/C=C/c1ccccc1 [trans-cinnamaldehyde],1.36 micromoles NADH/min/mg protein,inhibition at 2000 µM (YADH [2]): 50%
OCC=Cc1ccccc1 [cinnamyl alcohol],,inhibitory effect (YADH [3]; even at 8 mM): no inhibitory effect
COc1ccc(C=O)cc1 [p-anisaldehyde],1.55 micromoles NADH/min/mg protein,
O=CC=Cc1ccccc1 [cinnamaldehyde],,inhibition at 2000 µM (YADH [4]): 90%; time to 50% inhibition (YADH [3]; [5]): 12 min; time to total inhibition (YADH [3]; [5]): about 30 minutes
CC(C)=CCCC(C)=CC=O [citral],0.91 micromoles NADH/min/mg protein,
O=Cc1ccc(O)cc1 [p-hydroxybenzaldehyde],0.94 micromoles NADH/min/mg protein,
CC(C)c1ccc(C=O)cc1 [p-cuminaldehyde],0.94 micromoles NADH/min/mg protein,
